Laboratory results reported in patent US9173876B2, “Preparation and therapeutic applications of (2S,3R)-N-2-((3-pyridinyl)methyl)-1-azabicyclo[2.2.2]oct-3-yl)-3,5-difluorobenzamide” (Targacept, Inc., priority 2009, dated 2015).

How the values were obtained:
[1] = cited from earlier work
[2] = Aqueous solubility (salt screen); conditions: target 10 mg/ml at 25° C. unbuffered
db/db mouse = assay: Murine model of type 2 diabetes mellitus (db/db mouse); format: in vivo; conditions: MLA 3 mg/kg daily by gavage with 1.0 mg/kg test article
Excerpt: The db/db mouse, a well established model of type 2 diabetes mellitus, is a leptin-deficient mutant that expresses an obese phenotype and also commonly expresses metabolic symptoms including hyperglycemia, hyperlipidemia and hyperinsulinemia (Halaas et al., 1995 and Lee et al., 1996). This experimental animal model of diabetes was employed in a study designed to determine the effects of (2S,3R)—N-2-((3-pyridinyl)methyl)-1-azabicyclo[2.2.2]oct-3-yl)-3,5-difluorobenzamide on body mass and several additional metabolic parameters.
In this study, (2S,3R)—N-2-((3-pyridinyl)methyl)-1-azabicyclo[2.2.2]oct-3-yl)-3,5-difluorobenzamide was repeatedly administered orally (via gavage) at 1.0 mg/kg once daily starting from the age of approximately 3 weeks and continuing throughout the 7-week study. Nondiabetic heterozygote littermate mice (db/+; designated “Db”) were used as controls. Body weight and food intake were determined twice weekly. The α7 antagonist methyllycaconitine (MLA) was also given concurrently via gavage at 3 mg/kg daily to selected cohorts of db/db (designated “db”) or db/+mice. At the end of the 7-week dosing regimen, total growth rates (overall body weight gain) and average daily food intake were calculated. In addition, glucose levels were assessed in mice fasted overnight. Furthermore, blood sample analytes from mice fasted overnight were collected for measurements of tumor necrosis factor-a (TNF-α), triglycerides and glycosylated hemoglobin (HbA1c). All data are expressed as mean±SEM. For each parameter investigated, differences among all groups were compared by one-way ANOVA with post-hoc Neuman-Keuls multiple comparison test.

Sprague-Dawley rats = assay: Complete Freund's adjuvant (CFA)-induced thermal hyperalgesia; format: in vivo, rat; conditions: reference standard, 3 mg/kg s.c., 1 hour after dosing
Excerpt: Briefly, adult male Sprague-Dawley rats (BioLasco, Taiwan) weighing 180±20 g on receipt were randomly assigned to treatment groups of n=8 per group. […] A subject was placed within a plastic box atop an elevated glass floor and a light beam located under the glass floor was directed at the plantar surface of the right hind paw. The time required for the animal to withdraw the paw from the thermal stimulus was automatically recorded. The intensity of the light was adjusted to evoke an average group baseline latency from 12-14 seconds (pre-CFA) and a cut-off latency of 20 seconds was imposed. The latency for paw withdrawal was obtained for each rat and defined as the heat pain threshold.
Test substance, morphine and vehicle were administered by subcutaneous (s.c.) injection at time 0. The post-treatment level of thermal hyperalgesia was then measured at 60 minutes post-treatment. One-way ANOVA followed by Dunnett's test was applied for comparison between test substance treated groups and vehicle control group. Activity was considered significant at the P<0.05 level.

CD-1 mice = assay: Formalin test; format: in vivo, mouse; conditions: positive control, 5 mg/kg s.c.
Protocol: Subjects (adult male CD-1 mice (Charles River, Raleigh, N.C.) weighing approximately 20-25 grams) were removed from their home cage and weighed, then placed in a clear Plexiglas™ observation box for an acclimation period of 20-30 minutes. Mice were then removed from the observation chambers and (2S,3R)—N-2-((3-pyridinyl)methyl)-1-azabicyclo[2.2.2]oct-3-yl)-3,5-difluorobenzamide (as the hydrochloride salt in 0.9% saline) (1, 3 or 10 mg/kg s.c. (calculated with respect to the free base)), morphine (5 mg/kg; s.c.) or 0.9% saline vehicle was administered subcutaneously in a volume of 1 mL/kg. Mice were then returned to the chamber for the predetermined pretreatment time of 30 minutes for (2S,3R)—N-2-((3-pyridinyl)methyl)-1-azabicyclo[2.2.2]oct-3-yl)-3,5-difluorobenzamide and morphine.
The subject's assigned paw was grasped gently and formalin solution was injected into the paw intra-dermally in the middle on the dorsal side. Once injected, the subject was immediately returned to its observation chamber and a timer was started to mark the beginning of Phase I. Each subject was videotaped for the entire 40-minute session. […] The time spent licking during that 1 min interval was recorded, and the presence or absence of paw favoring was noted.
For data analyses, phase I of the test was defined as 0 to 5 minutes after formalin injection, and phase II was defined as 20 to 40 minutes after formalin injection. The time spent licking during the 1 minute intervals during those time frames was recorded and graphed as mean±S.E.M. For comparisons across treatment groups, 1-way analyses of variance (ANOVAs) were performed for each phase of the session with treatment as the […] variable. Post-hoc analyses were performed when appropriate to determine specific group differences.

[3] = tested on: STZ rat model of diabetic neuropathy; assay: Streptozotocin (STZ)-induced diabetic neuropathy, Von Frey allodynia; format: in vivo; conditions: 150 mg/kg i.p.
Protocol: Diabetes was induced by a 0.5 ml injection of streptozotocin (60 mg/kg) dissolved in citrate buffer (pH=6) into the tail vein of each rat. The development of diabetes was confirmed by measuring the blood glucose levels (BGL) of all animals on study day 3 (BGL>300 mg/dL). […] These animals were tested again for their BGL at study day 23.
(2S,3R)—N-2-((3-pyridinyl)methyl)-1-azabicyclo[2.2.2]oct-3-yl)-3,5-difluorobenzamide (0.1, 1 or 10 mg/kg p.o.) was administered as a solution of the hydrochloride salt in water once daily starting on study day 14 or study day 16 and continuing through study day 21 or 23, respectively. The control article gabapentin (in 0.9% saline, 150 mg/kg i.p.) was only administered on allodynia test days. Test item, vehicle or control article administration was based on evaluation of allodynia on study day 14. If allodynia was not present on study day 14, the animal was evaluated again at study day 16. Pain response was measured either on study days 14 and 21 or 16 and 23, 30 minutes after Test Item administration.
For the allodynia assessments, Von Frey filaments were used according to the methods of Chaplan and colleagues (1994). Briefly, the rats were placed in an enclosure and positioned on a metal mesh surface, but allowed to move freely. The rats' cabins were covered with red cellophane to diminish environmental distributions. The test began after cessation of exploratory behavior.
When the tip of a Von Frey fiber of given length and diameter was pressed against the skin at right angles, the force of application increases as long as the researcher continued to advance the probe until the fiber bent. After the fiber bent, the probe was advanced, causing the fiber to bend more, but without additional force being applied. The animal would indicate sensation by pulling back its paw. In the absence of a paw withdrawal response to the initially selected filament, a stronger stimulus was presented: in the event of paw withdrawal, the next weaker stimulus was chosen. In this fashion, the resulting pattern of positive and negative responses was used to determine the paw withdrawal threshold.
The set of Von Frey monofilaments provide an approximate logarithmic scale of actual force and a linear scale of perceived intensity. Below is a table showing the force (g) and its corresponding size of monofilaments.
All normally distributed data are presented as means±SEM, as well as the animals' individual values followed by a student T-test (Software: Microsoft® Excel). A p value<0.05 is considered to represent a significant difference. Due to the non-normal distribution of the allodynia data, descriptions of those data are provided as both mean (+SEM) and median values in order to represent their imprecise nature and skewed distribution.

For `O=C(O)CNC(=O)c1ccccc1` [Hippuric acid], the LogP [1] is given as 0.31.
In the case of `CCC(=O)O` [Propionic acid], the LogP [1] is listed as 0.25.
In the case of `O=C(O)/C=C/C(=O)O` [Fumaric acid], the LogP [1] is listed as −0.01.
In the case of `O=C(N[C@@H]1C2CCN(CC2)[C@H]1Cc1cccnc1)c1cc(F)cc(F)c1.O=P(O)(O)O` [Phosphate mono salts], the “Aqueous Solubility” value [2] is reported as greater than 10000 µg/mL.
For `O=C(O)[C@H](O)[C@@H](O)[C@H](O)[C@H](O)CO` [D-Gluconic acid], the LogP [1] is listed as −3.18.
With `O=C(N[C@@H]1C2CCN(CC2)[C@H]1Cc1cccnc1)c1cc(F)cc(F)c1.O=C(O)/C=C/C(=O)O` [Fumarate mono salt] the “Aqueous Solubility” value [2] was greater than 10000 µg/mL.
In the case of `CCN1C[C@]2(COC(=O)c3ccccc3N3C(=O)C[C@H](C)C3=O)CC[C@H](OC)[C@@]34[C@@H]5C[C@H]6[C@H](OC)[C@@H]5[C@](O)(C[C@@H]6OC)[C@@](O)([C@@H](OC)[C@H]23)[C@@H]14` [MLA, methyllycaconitine, reference compound], the “Weight gain on co-administration of MLA with the difluorobenzamide” value (db/db mouse; FIG. 15) is reported as “failed to show the reduced weight gain”, the “Daily average food consumption on co-administration of MLA with the difluorobenzamide” value (db/db mouse; FIG. 16) is reported as “failed to show the reduced daily average food consumption” and the “Reversal of the fasting plasma glucose effect by co-administration of MLA” value (db/db mouse; FIG. 17) is reported as “not reversed”. For the same molecule, the “Effect of MLA co-administration on the reduction in glycosylated HbA1c” value (db/db mouse; FIG. 18) was “attenuated”, the “Effect of MLA co-administration on the TNF alpha reduction” value (db/db mouse; FIG. 19) was “inhibited” and the “Effect of MLA co-administration on the reduction in triglycerides” value (db/db mouse; FIG. 20) was “not attenuated”.
In the case of `CN1CC[C@]23c4c5ccc(O)c4O[C@H]2[C@@H](O)C=C[C@H]3[C@H]1C5` [morphine, reference compound], the “Analgesic effect on CFA-induced thermal hyperalgesia” value (Sprague-Dawley rats) is reported as “significant analgesic activity” and the “Time spent licking, phase I and phase II” value (CD-1 mice) is reported as “efficacious in both phases of the test”.
In the case of `N[C@@H](CC(=O)O)C(=O)O` [L-Aspartic acid], the LogP [1] is given as −0.67.
In the case of `Cc1ccc(S(=O)(=O)O)cc1` [p-Toluene sulfonic acid], the LogP [1] is listed as 0.93.
In the case of `O=S(=O)(O)c1ccccc1` [Benzene sulfonic acid], the LogP [1] is listed as 0.47.
With `Cl.O=C(N[C@@H]1C2CCN(CC2)[C@H]1Cc1cccnc1)c1cc(F)cc(F)c1` [Hydrochloride mono salts] the “Aqueous Solubility” value [2] was greater than 10000 µg/mL.
For `O=C(O)c1ccc2ccccc2c1O` [1-Hydroxy-2-Naphthoic acid], the LogP [1] is listed as 3.29.
For `NCC1(CC(=O)O)CCCCC1` [gabapentin, reference compound], the “Paw withdrawal force post treatment, median” value ([3]; study days 14/16) was 60 g, the “Paw withdrawal force post treatment, mean±SEM” value ([3]; study days 14/16, pre treatment 22.77±3.77 g, vehicle 26.61±4.41 g) was 45.62 ± 4.24 g and the “Paw withdrawal force post treatment, median” value ([3]; study days 21/23) was 60 g. The “Paw withdrawal force post treatment, mean±SEM” value ([3]; study days 21/23, pre treatment 28.23±4.91 g, vehicle 20.46±3.31 g) was 50.88 ± 4.12 g and the “Tactile allodynia (Von Frey)” value ([3]; positive control, all treatment days, vs pretreatment and vehicle, p<0.01) was “reversed the tactile allodynia significantly”.
In the case of `O=C(O)/C=C\C(=O)O` [Maleic acid], the LogP [1] is given as −0.01.
